Assay [1] deals with Gram positive and Gram negative bacteria. The experiment in a line: Contact-killing on surface coated with composition B at various contact times. It is filed as cell-based, B. subtilis, S. aureus, E. coli. The conditions noted are these: 10 min contact, without encapsulation. The method, then: A hundred microliters of 10^7.cm^−3 bacteria cell suspension was placed in contact with the coated surface at ambient condition (23±2° C., 70% R.H.) in a sterilized biological safety cabinet (NuAire, Nu-425-400E). Three sets of runs of five samples each were carried out at the fixed contact times of 1, 5, 10 and 30 min. The samples were immersed into a primary subculture tube containing 20 ml neutralizer for 30 min to stabilize the surviving bacteria cells. The sterile neutralizer solution was freshly prepared by adding 1% (v/v) 0.1 M Na2S2O3 to 600 ml of 0.85% (w/v) normal saline (NaCl, RDH) solution containing 0.1% (v/v) (final concentration) of polyoxyethylenesorbitan monooleate (Tween 80) followed by autoclave at 121° C. for 20 min. A hundred microliters aliquots from the neutralizer were cultured on a TSA plate. The numbers of viable bacteria were counted after incubating the plates for 24 h at 37±0.1° C. The sample was drip-dried and transferred to a second subculture tube containing 20 ml of sterile nutrient broth (Nutrient broth no. 2, Oxoid) for 10 min. A hundred microliters aliquots from the nutrient broth were cultured on a TSA plate. The numbers of viable bacteria were counted after incubating the plates for 24 h at 37±0.1° C.

In another assay the test system is S. aureus. As to the kind of experiment: Kirby-Bauer disk diffusion test. It is filed as cell-based. The following applies: wafer coated and dried. The procedure: Standard Kirby-Bauer disk diffusion test was performed using S. aureus. Sterile TSA plates were evenly inoculated with a loopful (ca. 100 μl) of S. aureus inoculum from the broth culture (ca. 10^6.cm^−3). […] A filter paper coated with 100 μl of 70% ethanol without drying was used as positive control
The Kirby-Bauer disk diffusion test was conducted, a standard antimicrobial test method using impregnated wafers to test whether particular bacteria are susceptible by comparing the area of clearing that surrounds the wafer where bacteria are not capable of growing (called a zone of inhibition).
(Agar diffusion results depend on both activity and mobility in agar.)

Take `[O][Cl+][O-]` [chlorine dioxide]: in assay [1], the “antimicrobial effect (in words)” value is reported as “ineffective”. On to ethanol [70% alcohol], for which the zone of inhibition entry in the assay on S. aureus is “do not show zones of inhibition”.

Values taken from patent US8968758B2, “Material for forming a multi-level antimicrobial surface coating and its preparation” (The Hong Kong University of Science and Technology …, priority 2008, dated 2015).
